A word on the IC50: it is the midpoint of a concentration-inhibition curve. Low values mean inhibition by little substance, high ones a need for much substance.

Counter-ions that a name gives are not always drawn.

Experimental findings from patent US11174251B2, “Compositions and methods for inhibition of the JAK pathway” (Rigel Pharmaceuticals, Inc., priority 2010, dated 2021) are described below.

The assay has as its target T1, JAK3 (Homo sapiens, UniProt P52333).
T1 construct: The Ramos B-cell line was acquired from ATCC (ATCC Catalog No. CRL-1596); host or cells: Ramos B-cell line (human)
T1 sequence (P52333 1-1124): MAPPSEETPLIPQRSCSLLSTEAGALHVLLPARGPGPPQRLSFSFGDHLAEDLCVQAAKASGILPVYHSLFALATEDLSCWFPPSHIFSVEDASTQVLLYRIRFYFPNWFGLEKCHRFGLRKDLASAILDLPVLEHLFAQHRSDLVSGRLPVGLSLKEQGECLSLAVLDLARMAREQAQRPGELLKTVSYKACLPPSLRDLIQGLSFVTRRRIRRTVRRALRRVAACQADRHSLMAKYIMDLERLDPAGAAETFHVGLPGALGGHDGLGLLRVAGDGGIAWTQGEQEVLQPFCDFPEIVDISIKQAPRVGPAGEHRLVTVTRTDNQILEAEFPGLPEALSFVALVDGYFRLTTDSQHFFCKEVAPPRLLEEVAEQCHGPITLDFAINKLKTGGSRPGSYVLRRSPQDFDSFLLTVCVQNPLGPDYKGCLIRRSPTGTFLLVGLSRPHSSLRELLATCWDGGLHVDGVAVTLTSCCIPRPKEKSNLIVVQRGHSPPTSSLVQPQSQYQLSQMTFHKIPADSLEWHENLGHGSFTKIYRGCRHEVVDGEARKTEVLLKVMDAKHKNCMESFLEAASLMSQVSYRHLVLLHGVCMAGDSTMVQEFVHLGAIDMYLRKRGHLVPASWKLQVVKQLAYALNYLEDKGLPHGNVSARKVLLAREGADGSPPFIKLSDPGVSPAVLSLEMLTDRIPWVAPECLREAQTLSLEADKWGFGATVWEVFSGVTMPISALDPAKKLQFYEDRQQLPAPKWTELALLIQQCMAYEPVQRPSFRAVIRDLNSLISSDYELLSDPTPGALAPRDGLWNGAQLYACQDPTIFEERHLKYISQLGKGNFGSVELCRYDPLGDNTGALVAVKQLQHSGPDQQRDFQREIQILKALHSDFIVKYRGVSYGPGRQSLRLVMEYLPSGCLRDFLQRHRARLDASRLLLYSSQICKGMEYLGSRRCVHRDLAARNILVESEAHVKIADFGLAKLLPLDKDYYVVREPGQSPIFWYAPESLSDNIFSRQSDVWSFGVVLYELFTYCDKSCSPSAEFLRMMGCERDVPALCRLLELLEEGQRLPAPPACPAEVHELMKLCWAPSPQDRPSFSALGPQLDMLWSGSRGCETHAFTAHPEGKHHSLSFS
The assay is described as follows: Assay for CD23 expression on Ramos B-cells stimulated by IL-4 (Table IV: ability to inhibit JAK3 activity). The format is cell-based. To be noted: tested under conditions described in Example 3 (so in the source). The method, boiled down: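 Human Ramos B cells in RPMI with 5% serum, pre-incubated 1 h at 37 °C with compound or DMSO, then stimulated with IL-4 (final 50 units/mL) for 20–24 h. Surface CD23 upregulation measured by FACS staining as readout of JAK1/JAK3–Stat-6 signalling.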

On to `CC(=O)c1ccc(Nc2ncc(F)c(Nc3ccc4oc(=O)[nH]c4c3)n2)cc1` [Compound I-157, 5-(2-(4-acetylphenylamino)-5-fluoropyrimidin-4-ylamino)benzo[d]oxazol-2(3H)-one formate salt], for which the IC50 was below 500 nM.

Take `Cc1cnc(N(C)c2ccccc2)nc1Nc1ccc2oc(=O)[nH]c2c1` [Compound I-26, 5-[5-Methyl-2-(methyl-phenyl-amino)-pyrimidin-4-ylamino]-3H-benzooxazol-2-one]: the IC50 was in the range of 500 to 5000 nM.

`COc1cc(Nc2ncc(F)c(Nc3ccc4oc(=O)[nH]c4c3)n2)cc(Cl)c1OC` [Compound I-185, 5-(2-(3-chloro-4,5-dimethoxyphenylamino)-5-fluoropyrimidin-4-ylamino)benzo[d]oxazol-2(3H)-one trifluoroacetate salt] came in with an IC50 below 500 nM.

Consider `CC(C)c1ccc(Nc2ncc(F)c(Nc3ccc4oc(=O)[nH]c4c3)n2)cc1` [Compound I-200, 5-(2-(4-isopropylphenylamino)-5-fluoropyrimidin-4-ylamino)benzo[d]oxazol-2(3H)-one trifluoroacetate salt], for which the IC50 lay in the range of 500 to 5000 nM.

`COc1ccc(Nc2ncc(F)c(Nc3ccc4oc(=O)[nH]c4c3)n2)cc1` [Compound I-196, 5-(2-(4-methoxyphenylamino)-5-fluoropyrimidin-4-ylamino)benzo[d]oxazol-2(3H)-one formate salt] yielded an IC50 below 500 nM.

The compound `Cc1cc(Nc2ncc(CN3CCCCC3)c(Nc3ccc4oc(=O)[nH]c4c3)n2)cc(C)c1C` [Compound I-99, 5-(2-(3,4,5-trimethylphenylamino)-5-((piperidin-1-yl)methyl)pyrimidin-4-ylamino)benzo[d]oxazol-2(3H)-one] came in with an IC50 above 10000 nM.

In the case of `Cc1cnc(Nc2ccc(C#N)c(C)n2)nc1Nc1ccc2oc(=O)[nH]c2c1` [II-16, N2-(5-cyano-6-methylpyridin-2-yl)-5-methyl-N4-(2-oxo-2,3-dihydro-1,3-benzoxazol-5-yl)-2,4-pyrimidinediamine], the IC50 is above 10000 nM.

`NC(=O)c1ccc(Nc2ncc([N+](=O)[O-])c(Nc3ccc4oc(=O)[nH]c4c3)n2)cc1` [Compound I-60, 4-(5-nitro-4-(2-oxo-2,3-dihydrobenzo[d]oxazol-5-ylamino)pyrimidin-2-ylamino)benzamide trifluoroacetate salt] showed an IC50 above 10000 nM.

`Cc1cnc(Nc2cc(C)c(C)c(C)c2)nc1Nc1cc(CN2CCCC2)c2oc(=O)[nH]c2c1` [Compound I-91, 5-(2-(3,4,5-trimethylphenylamino)-5-methylpyrimidin-4-ylamino)-7-((pyrrolidin-1-yl)methyl)benzo[d]oxazol-2(3H)-one]: the half-inhibitory concentration (IC50) fell in the range of 500 to 5000 nM.

`COc1c(C)ccc(Nc2ncc(Cl)c(Nc3ccc4oc(=O)[nH]c4c3)n2)c1F` [Compound I-67, 5-(5-chloro-2-(2-fluoro-3-methoxy-4-methylphenylamino)pyrimidin-4-ylamino)benzo[d]oxazol-2(3H)-one] showed an IC50 below 500 nM.

`COc1cc(Nc2ncc(F)c(Nc3ccc4oc(=O)[nH]c4c3)n2)cc(C(F)(F)F)c1` [Compound I-211, 5-fluoro-N2-(3-methoxy-5-trifluoromethyl)phenyl-N4-(2-oxo-2,3-dihydro-1,3-benzoxazol-5-yl)-2,4-pyrimidinediamine]: the IC50 is below 500 nM.

On to `COCCOc1c(C)ccc(Nc2ncc(F)c(Nc3ccc4oc(=O)[nH]c4c3)n2)c1F` [Compound I-61, 5-(5-fluoro-2-(2-fluoro-3-(2-methoxyethoxy)-4-methylphenylamino)pyrimidin-4-ylamino)benzo[d]oxazol-2(3H)-one trifluoroacetate salt], for which the 50% inhibitory concentration (IC50) was below 500 nM.

In the case of `Cc1cc(Nc2ncc(CO)c(Nc3ccc4oc(=O)[nH]c4c3)n2)cc(C)c1F` [Compound I-79, 5-(2-(4-fluoro-3,5-dimethylphenylamino)-5-(hydroxymethyl)pyrimidin-4-ylamino)benzo[d]oxazol-2(3H)-one trifluoroacetate salt], the half-inhibitory concentration (IC50) is below 500 nM.

Compound `Cc1ccc(Nc2ncc(F)c(Nc3ccc4oc(=O)[nH]c4c3)n2)cc1-c1cccnc1` [Compound I-204, 5-(2-(4-methyl-3-(pyridin-3-yl)phenylamino)-5-fluoropyrimidin-4-ylamino)benzo[d]oxazol-2(3H)-one] displayed an IC50 below 500 nM.

Regarding `[2H]C([2H])([2H])c1c(C)cc(Nc2ncc(F)c(Nc3ccc4oc(=O)[nH]c4c3)n2)cc1C` [Compound I-37, 5-(5-fluoro-2-(3,5-dimethyl-4-d3-methyl)phenylamino)pyrimidin-4-ylamino)benzo[d]oxazol-2(3H)-one trifluoroacetate salt], the IC50 is above 10000 nM.

With `O=C1CCCCc2cc(Nc3ncc(F)c(Nc4ccc5oc(=O)[nH]c5c4)n3)ccc21` [II-5, 5-(5-fluoro-2-(5-oxo-6,7,8,9-tetrahydro-5H-benzo[7]annulen-2-ylamino)pyrimidin-4-ylamino)benzo[d]oxazol-2(3H)-one formate salt], the IC50 is below 500 nM.

`COc1cc(Nc2ncc(C)c(Nc3cc(F)c4oc(=O)[nH]c4c3)n2)cc(C)c1C` [Compound I-111, 5-(2-(3-methoxy-4,5-dimethylphenylamino)-5-methylpyrimidin-4-ylamino)-7-fluorobenzo[d]oxazol-2(3H)-one trifluoroacetate trifluoroacetate salt] yielded an IC50 below 500 nM.

Turning to `Cc1cnc(Nc2cc(C)c(Br)c(C)c2)nc1Nc1ccc2oc(=O)[nH]c2c1` [Compound I-149, N2-(4-bromo-3,5-dimethyl)phenyl-5-methyl-N4-(2-oxo-2,3-dihydro-1,3-benzoxazol-5-yl)-2,4-pyrimidinediamine], the IC50 is below 500 nM.

`Cc1cnc(Nc2ccc(C)c3c2COC3=O)nc1Nc1ccc2oc(=O)[nH]c2c1` [II-12, 5-methyl-N4-(2-oxo-2,3-dihydro-1,3-benzoxazol-5-yl)-N2-(1-oxo-1,3-dihydro-7-methylisobenzofuran-4-yl)-2,4-pyrimidinediamine]: the IC50 is below 500 nM.

Consider `Cc1cc(Nc2ncc(F)c(Nc3cc(F)c4oc(=O)[nH]c4c3)n2)cc(C)c1F` [Compound I-189, 5-(2-(4-fluoro-3,5-dimethylphenylamino)-5-fluoropyrimidin-4-ylamino)-7-fluorobenzo[d]oxazol-2(3H)-one trifluoroacetate salt], for which the IC50 was below 500 nM.

Compound `COc1cc(Nc2ncc(C)c(Nc3ccc4oc(=O)n(COP(=O)(O)O)c4c3)n2)cc(C)c1C` [Compound I-115, Disodium (5-(2-(3-methoxy-4,5-dimethylphenylamino)-5-methylpyrimidin-4-ylamino)-2-oxobenzo[d]oxazol-3(2H)-yl)methyl phosphate] displayed an IC50 of 500 to 5000 nM.

`CCN(CC)Cc1cnc(Nc2cc(C)c(C)c(C)c2)nc1Nc1ccc2oc(=O)[nH]c2c1` [Compound I-97, 5-(5-((diethylamino)methyl)-2-(3,4,5-trimethylphenylamino)pyrimidin-4-ylamino)benzo[d]oxazol-2(3H)-one ditrifluoroacetate salt] displayed an IC50 of 500 to 5000 nM.

In turn, `Cc1ccc(Nc2ncc(C)c(Nc3ccc4oc(=O)[nH]c4c3)n2)cc1N(C)C` [Compound I-17, 5-[2-(3-Dimethylamino-4-methyl-phenylamino)-5-methyl-pyrimidin-4-ylamino]-3H-benzooxazol-2-one] had an IC50 below 500 nM.

In turn, `COc1cc(Nc2ncc(C)c(Nc3ccc4oc(=O)[nH]c4c3)n2)cc(C)c1CO` [Compound I-129, 4-(4-(2,3-dihydro-2-oxobenzo[d]oxazol-5-ylamino)-5-methylpyrimidin-2-ylamino)-2-methoxy-6-methylbenzyl alcohol trifluoroacetate salt] yielded an IC50 below 500 nM.

As to `COc1cc(Nc2ncc(F)c(Nc3ccc4oc(=O)[nH]c4c3)n2)cc(C)c1F` [Compound I-181, 5-(2-(4-fluoro-3-methoxy-5-methylphenylamino)-5-fluoropyrimidin-4-ylamino)benzo[d]oxazol-2(3H)-one trifluoroacetate salt], the IC50 is below 500 nM.

On to `Cc1cc(C)cc(Nc2ncc(F)c(Nc3cc(F)c4oc(=O)[nH]c4c3)n2)c1` [Compound I-187, 5-(2-(3,5-dimethylphenylamino)-5-fluoropyrimidin-4-ylamino)-7-fluorobenzo[d]oxazol-2(3H)-one trifluoroacetate salt], for which the IC50 is below 500 nM.
